These results are taken from PMC6943612, “Investigation of Anti-Inflammatory Potential of N-Arylcinnamamide Derivatives” (Molecules, 2019).

In one data set the test system is IκBα. The data set can be described thus: Signaling pathway analysis (Western blot): IκBα level. The data set is classed as cell-based. The following applies: 2 µM, 30 min after LPS 1 µg/mL. The protocol:
(§1) The level of IĸB and the amount of activated (phosphorylated) mitogen-activated protein (MAP) kinase p38, ERK1/2, and JNK was determined on the THP1-Blue™ NF-κB, in a way similar to that described previously. Briefly, cells cultivated in serum-free medium were pretreated with the tested compounds (8, 17, cinnamic acid, or prednisone) at concentration 2 µM. One hour later, 1 µg/mL of LPS was added, and after 30 min the cells were collected into ice-cold Mammalian Cell Lysis Buffer (Abcam, Cambridge, UK) with phosphatase inhibitors PhosSTOP (Roche, Mannheim, Germany). Cell lysates were centrifuged 3000 g/5 min/4 °C and supernatants were mixed with 5× Laemmli reducing buffer [250 mM Tris-HCl pH 6.8, 10% (w/v) SDS, 30% (v/v) glycerol, 5% (v/v) β-mercaptolethanol, 0.04% (w/v) bromphenol blue], and incubated at 95 °C for 5 min. […] The membranes were incubated at 4 °C for 16 h with primary anti-IĸB-α (Cell Signaling; product No. 4814; dilution 1:1,000), anti-p44/42 MAPK (ERK1/2) (Cell Signaling; product No. 9102; dilution 1:1,000), anti-phospho-p44/42 MAPK (ERK1/2) (Cell Signaling; product No. 9101; dilution 1:1,000), anti-JNK1/2/3 (Abcam; product No. ab179461; dilution 1:1,000), anti-phosho-JNK1/2/3 (Abcam; product No. ab76572; dilution 1:5,000), anti-p38 MAPK (Cell Signaling; product No. 8690; dilution 1:1,000), anti-phospho-p38 MAPK (Cell Signaling; product No. 9210; dilution 1:1,000), and anti-β-actin (Santa Cruz, Aachen, Germany; product No. sc-47778; dilution 1:5000) antibodies. […] The amount of bound secondary antibody was determined using WesternSure® PREMIUM Chemiluminescent Substrate (LI-COR, Lincoln, NE, USA). Chemiluminescence was detected using a LI-COR C-DiGit chemiluminescence imaging system (LI-COR).
(§2) Figure 6 Effect of N-arylcinnamamide derivatives on the activation of MAPKs. […] Cells were collected 30 min after LPS stimulation and selected proteins were detected by Western blot and immunodetection.
A general note: A western blot detects proteins with antibodies after separation by electrophoresis.

A further data set deals with MAPKs (p38, ERK1/2, JNK). Nature of the data set: Signaling pathway analysis (Western blot): phosphorylated MAPKs. The data set is classed as cell-based. The following applies: 2 µM, 30 min after LPS 1 µg/mL. The protocol: as §1, §2
In data set [1] the test system is transcription factor NF-κB. Nature of the data set: Determination of LPS-induced NF-κB activity (Quanti-Blue, SEAP reporter). Type of data set: cell-based. The following applies: for inhibition at 2 µM: concentration of compounds 2 µM; for inhibition at 2 µM / inhibition at 0.5 µM: LPS 1 µg/mL, 24 h; for inhibitory effect on NF-κB activity compared with prednisone (in words): 2 µM, same concentration as prednisone; for inhibition at 0.5 µM: concentration of compounds 0.5 µM. The protocol: The activity of NF-κB transcription factors was evaluated on THP1-Blue™ NF-κB cells as described previously. […] After 24 h of incubation, 20 µL of cultivation medium was mixed with 200 µL of Quanti-Blue™ medium (Invivogen) and incubated according to the manufacturer’s instructions at 37 °C for 30–40 min. The activity of NF-κB was determined as secretion of embryonic alkaline phosphatase spectrophotometrically in a Tecan Infinite M200 (Tecan, Männedorf Switzerland) at 650 nm and compared with an untreated control (100%).
Figure 3 Effect of the tested compounds on the activity of transcription factor NF-κB. THP1-Blue™ NF-κB cells were pretreated by compounds (2 µM; or 0.5 µM for 10, 11, and 13) or prednisone (PDS; 2 µM) dissolved in DMSO at indicated concentrations for 1 h. Then, lipopolysaccharide (LPS) 1 µg/mL was added to trigger the NF-κB activation. The activity of NF-κB was measured 24 h after LPS stimulation using QuantiBlue™ assay. Graph represents mean ± SEM. Red dotted line show value of DMSO-only treated group, azur dotted line CA treated group, and blue dotted line PDS treated group. ** indicates statistical significance (p < 0.01) to DMSO group; *** indicates statistical significance (p < 0.001) to DMSO group **** indicates statistical significance (p < 0.0001) to DMSO group.

In a further data set the test system is THP1-Blue™ NF-κB cells. The data set can be described thus: Cell viability determination (WST-1), 24 h. The data set is classed as cell-based. The following applies: WST-1, 24 h incubation, serum-free medium, three independent measurements; read-out: IC50 ± SEM, viability of THP1-Blue™ NF-κB cell line. The protocol:
The cell viability was determined as was described previously. […] The final concentration of DMSO was 0.1% (v/v) in each well. Measurements were taken after 24 h incubation with the tested substances. Viability was measured by the Cell Proliferation Reagent kit WST-1 (Roche Diagnostics, Basel, Switzerland) according to the manufacturer’s manual. […] The IC50 values were calculated by four-parameter logistic (4PL) analysis from obtained viability curves.
(In general: Tetrazolium assays rely on reduction of a dye to a coloured formazan, in cell work by metabolically active cells.)

A further data set relates to TNF-α. Nature of the data set: TNF-α secretion by LPS-stimulated PMA-differentiated THP1-Blue™ NF-κB macrophages (ELISA). Type of data set: cell-based, Human. The following applies: 2 µM, LPS 1 µg/mL, 24 h. As for the experimental part: Differentiated THP1-Blue™ NF-κB macrophages (see the chapter 3.6) were pre-treated for 1 h with 2 µM solutions of the tested compounds 8, 12, 6, 17, cinnamic acid, and prednisone dissolved in DMSO, or only the vehicle [0.1% (v/v) […] solution]. The inflammatory-like response was triggered by adding 1 μg/mL of LPS from E. coli 0111:B4 (Sigma-Aldrich) to the pre-treated macrophages; the control cells were left without LPS treatment. After 24 h, the supernatants were collected and the concentration of TNF-α was measured using a Human TNF-α ELISA Kit (Diaclone, Besançon, France), according to the manufacturer’s manual.
Figure 7 Effect of N-arylcinnamamide derivatives on the secretion of TNF-α. THP1-Blue™ NF-κB cells were differentiated to macrophages by PMA. Such cells were pretreated by compounds or PDS (2 µM) for 1 h, then LPS (1 µg/mL) was added to trigger the inflammatory signalization. Cultivation medium was collected 24 h after LPS stimulation, and the amount of TNF-α was measured by the ELISA technique. Graph represents mean ± SEM. * indicates statistical significance (p < 0.05) to DMSO group; ** indicates statistical significance (p < 0.01) to DMSO group **** indicates statistical significance (p < 0.0001) to DMSO group.

On the set-up of data set [2]: method as in PMID 30087309. The following applies: cited from earlier work.

Structures are written as SMILES.

As for `O=C(O)/C=C/c1ccccc1` [CA, cinnamic acid, reference compound], the “effect on IκBα levels” value in the data set with IκBα is “no effect”. Moreover, the “effect on MAPKs activity” value in the data set with MAPKs (p38, ERK1/2, JNK) is “no effect”. 2 µM produced 11.4% inhibition in data set [1]. Further, the IC50 with THP1-Blue™ NF-κB cells was more than 30 µM. Also, the “effect on TNF-α production (in words)” value with TNF-α is “did not affect”.
In data set [1], `Cc1cccc(NC(=O)/C=C/c2ccccc2)c1` [Compound 2] had an inhibition at 2 µM of 9%. Also, the IC50 in the data set with THP1-Blue™ NF-κB cells is more than 30 µM.
The matching figures for `Cc1ccc(NC(=O)/C=C/c2ccccc2)cc1` [Compound 3]: 8.5% and more than 30 µM.
Take `O=C(/C=C/c1ccccc1)Nc1cccc(C(F)(F)F)c1` [Compound 6, (2E)-3-Phenyl-N-[3-(trifluoromethyl)phenyl]prop-2-enamide]: the log k in data set [2] is 0.4859. Moreover, the inhibition at 2 µM in data set [1] was determined as 16.7%. Besides, the IC50 in the data set on THP1-Blue™ NF-κB cells stood at 11.6 ± 1.13 µM. Further, the “decrease of the level of TNF-α” value in the data set with TNF-α is 10.4%.
For the compound `Cc1ccc(C)c(NC(=O)/C=C/c2ccccc2)c1` [Compound 7], testing at 2 µM in data set [1] gave an inhibition of 14.8%. Also, the IC50 in the data set with THP1-Blue™ NF-κB cells was more than 30 µM.
On to `O=C(/C=C/c1ccccc1)Nc1cc(Cl)ccc1Cl` [Compound 8, (2E)-N-(2,5-dichlorophenyl)-3-phenylprop-2-enamide], for which the “effect on IκBα levels” value in the data set with IκBα is “no effect”. In addition, the “effect on MAPKs activity” value with MAPKs (p38, ERK1/2, JNK) is “no effect”. Also, in data set [1], the “inhibitory effect on NF-κB activity compared with prednisone (in words)” value is listed as “comparable with prednisone” and the inhibition at 2 µM is 22.5%. The IC50 in the data set on THP1-Blue™ NF-κB cells is more than 30 µM.
Compound `O=C(/C=C/c1ccccc1)Nc1c(Cl)cccc1Cl` [Compound 9] came in with an inhibition at 2 µM in data set [1] of 14.1%. Besides, the IC50 in the data set with THP1-Blue™ NF-κB cells was more than 30 µM.
For `O=C(/C=C/c1ccccc1)Nc1ccc(Cl)c(Cl)c1` [Compound 10], in data set [2], the log k was 0.6821. In addition, at 0.5 µM the inhibition in data set [1] was 10.9%. In addition, the half-maximal inhibitory concentration (IC50) with THP1-Blue™ NF-κB cells came to 6.28 ± 2.32 µM.
As for `O=C(/C=C/c1ccccc1)Nc1cc(Cl)cc(Cl)c1` [Compound 11], the log k in data set [2] is 0.8155. In addition, the inhibition at 0.5 µM in data set [1] worked out at 16.2%. The IC50 in the data set on THP1-Blue™ NF-κB cells is 2.43 ± 1.06 µM.
As for `O=C(/C=C/c1ccccc1)Nc1c(Br)cccc1Br` [Compound 12, (2E)-N-(2,6-dibromophenyl)-3-phenylprop-2-enamide], in data set [1], the “inhibitory effect on NF-κB activity compared with prednisone (in words)” value is “comparable with prednisone” and the inhibition at 2 µM worked out at 23.1%. Further, the half-inhibitory concentration (IC50) with THP1-Blue™ NF-κB cells was more than 30 µM. For the same compound, in the data set on TNF-α, the “decrease of the level of TNF-α” value stood at 10% and the “effect on TNF-α production (in words)” value was “decreased”.
Regarding `O=C(/C=C/c1ccccc1)Nc1cc(C(F)(F)F)cc(C(F)(F)F)c1` [Compound 13], the log k in data set [2] is 0.9814. The same compound came in with an inhibition at 0.5 µM in data set [1] of 19.7%. Besides, the concentration for half-maximal inhibition (IC50) with THP1-Blue™ NF-κB cells was found to be 2.17 ± 1.19 µM.
With `O=C(/C=C/c1ccccc1)Nc1cc(Br)ccc1F` [Compound 14], the inhibition at 2 µM in data set [1] is 19.7%. Further, the IC50 with THP1-Blue™ NF-κB cells was more than 30 µM.
The matching figures for `O=C(/C=C/c1ccccc1)Nc1cc(F)ccc1Br` [Compound 15, (2E)-N-(2-bromo-5-fluorophenyl)-3-phenylprop-2-enamide]: 17.8% and more than 30 µM.
The matching figures for `O=C(/C=C/c1ccccc1)Nc1ccc(Br)cc1Cl` [Compound 16, (2E)-N-(4-bromo-2-chlorophenyl)-3-phenylprop-2-enamide]: 13.7% and more than 30 µM.
On the same counts, the results for `COc1ccc([N+](=O)[O-])cc1NC(=O)/C=C/c1ccccc1` [Compound 18, (2E)-N-(2-methoxy-5-nitrophenyl)-3-phenylprop-2-enamide] are 17.6% and more than 30 µM.
As for `C[C@]12C=CC(=O)C=C1CC[C@@H]1[C@@H]2C(=O)C[C@@]2(C)[C@H]1CC[C@]2(O)C(=O)CO` [PDS, prednisone, reference compound], the “decrease of the level of TNF-α” value in the data set with TNF-α came to 70.3%.

Broadly, the inhibition is how much of the control response was suppressed. The IC50 is the concentration needed to halve the response being measured.
